Patent US20260007601A1, “IONIZABLE CATIONIC LIPID COMPOUND AND COMPOSITION FOR DELIVERING NUCLEIC ACID AND USE THEREOF” (BEIJING YOUCAREKECHUANG PHARMACEUTICAL TECHNOLOGY CO., LTD., priority 2023, published 2026)

Assays:
[1] = Particle size and polydispersity index (PDI) of nanolipid particles, dynamic light scattering; assay type: physicochemical; conditions: LNP formulation prepared from the named cationic lipid, 25° C
Experimental: The particle size and polydispersity index (PDI) were determined by dynamic light scattering method using a Malvern laser particle size analyzer. 10 μL of liposome solution was diluted to 1 mL with RNase-free deionized water and added to a sample pool. Each sample was measured three times. The measurement conditions were: 90° scattering angle, 25° C.

[2] = Encapsulation rate, drug loading concentration and total RNA concentration detection (RiboGreen); assay type: physicochemical; conditions: LNP formulation of the named lipid
From the text: Encapsulation rate is a key quality attribute of liposomes. It refers to the percentage of drug content encapsulated in the lipid bilayer to the total amount of drug added, which can reflect the degree of drug encapsulation in liposomes. The Chinese Pharmacopoeia stipulates that the encapsulation rate should usually not be less than 80%.
The drug loading capacity is the ratio of the amount of drug in the liposome to the total amount of drug and carrier in the liposome. The drug loading capacity directly affects the clinical application dose of the drug, so the larger the drug loading capacity, the more it can meet clinical needs. The drug loading concentration is proportional to the drug loading capacity, and the relative proportion of the drug loading concentration can represent the relative proportion of the drug loading capacity. The relative proportion of the total RNA concentration can represent the relative proportion of the amount of mRNA carried by the LNP formulation.
1×TE buffer, 0.1% Triton X-100 buffer, and RiboGreen reagent (1:200) and mRNA standard stock solution were prepared.
An appropriate amount of sample was taken and added to an appropriate amount of 1×TE buffer, which was diluted to a solution containing about 2.8 μg of the test sample per 1 mL. Then the sample was added to a 96-well plate, where 50 μL of the diluted test sample or mRNA standard stock solution was added to each well, and then added with 1×TE buffer and 0.1% Triton X-100 buffer. The samples were incubated at 37° C. for 10 minutes, and 100 μL of RiboGreen reagent (1:200) was added to each well of the 96-well plate. The plate was centrifuged, and read using an ELISA reader, and the data was processed.

293T cells [3] = assay: Fluorescence detection of Fluc-mRNA (cell transfection efficiency of LNP formulations); assay type: cell-based; conditions: for Relative light unit (RLU): LNP containing 0.3 μg Fluc-mRNA, 24 hours; for Multiples of values that equivalent to YK-201: RLU of YK-201 / RLU of the named lipid; for Multiples of values that equivalent to YK-202: RLU of YK-202 / RLU of the named lipid; for Multiples of values that equivalent to YK-209: RLU of YK-209 / RLU of the named lipid; for Ratio relative to SM-102: RLU of the named lipid / RLU of SM-102, times that of SM-102
Experimental: (§1) Cell recovery and passaging: 293T cells were recovered and cultured in culture dishes to the required cell number.
(§2) Plating: The cells in the culture dish were digested, counted, plated in a 96-well plate at 10,000 cells per well, or in a 12-well plate at 150,000 cells per well, and cultured overnight until the cells adhered to the wall.
(§3) Cell recovery and passage: The method was the same as in Example 3.
(§4) Plating: The method was the same as Example 3.
The LNP formulation containing 0.3 μg Fluc-mRNA (prepared according to Example 4, the LNP formulation carrier components were cationic lipids, neutral lipids, structured lipids and polymer-conjugated lipids at a molar ratio of 49:10:39.5:1.5, and the cationic lipids were cationic lipids listed in Table 1) was added to the cell culture medium of a 96-well plate, and cultured for 24 hours. After that, the corresponding reagents were added according to the instructions of the Gaussia Luciferase Assay Kit, and the fluorescence expression intensity of each well was detected by the IVIS fluorescence detection system. This experiment verified the transfection efficiency of the LNP formulation in the cell, and the specific detection results are shown in Tables 6-9.

293T cells [4] = assay: Cell survival rate assay (CCK-8); assay type: cell-based; conditions: LNP containing 1.5 μg Fluc-mRNA, 24 hours, CCK-8
Experimental: as §1, §2, §3, §4
The LNP formulations containing 1.5 μg Fluc-mRNA (prepared according to Example 4, the LNP formulation carrier components are cationic lipids, neutral lipids, structured lipids and polymer-conjugated lipids at a molar ratio of 49:10:39.5:1.5, wherein the cationic lipids are the cationic lipids listed in Table 1) and the Lipofectamine 3000 formulation were added to the cell culture medium of the 96-well plate, and the culture was continued for 24 hours. Then, 10 μL of CCK-8 solution was added to each well, and the culture plate was incubated in the incubator for 1 hour, and the absorbance at 450 nm was measured by a microplate reader.

female BALB/C mice = assay: Mouse in vivo imaging of Fluc-mRNA LNP formulations; design: average radiation intensity (mRNA expression): unit not given here; conditions: 10 μg Fluc-mRNA LNP intramuscularly
Experimental: The LNP formulation containing 10 μg Fluc-mRNA (prepared according to Example 4) was injected intramuscularly into female BALB/C mice aged 4 to 6 weeks and weighing 17 to 19 g, and the mice were intraperitoneally injected with fluorescent imaging substrates at specific time points (6 h, 24 h, 48 h and 7 d) after administration. The mice moved freely for 5 minutes, and then the average radiation intensity (corresponding to the fluorescence expression intensity) of the protein expressed by the mRNA carried by the LNP in the mice was detected by IVIS Spectrum small animal in vivo imager. The test results are shown in Tables 14 to 17 and FIGS. 12 to 14.

Compound	PDI [1] [%]	Particle size [1] [nm]	Drug loading concentration [2] [µg/mL]	Encapsulation rate [2] [%]	Total RNA concentration [2] [µg/mL]	Relative light unit (RLU) (293T cells [3])	Multiples of values that equivalent to YK-201 (293T cells [3])	Multiples of values that equivalent to YK-202 (293T cells [3])	Multiples of values that equivalent to YK-209 (293T cells [3])	Ratio relative to SM-102 (293T cells [3])	Cell survival rate (293T cells [4]) [%]	average radiation intensity (mRNA expression) (female BALB/C mice; 6 h)	average radiation intensity (mRNA expression) (female BALB/C mice; 24 h)	average radiation intensity (mRNA expression) (female BALB/C mice; 48 h)	average radiation intensity (mRNA expression) (female BALB/C mice; 7 d)
CCCCCCC(CCCCCC)CCOC(=O)CCCCCN(CCCCCC(=O)OCCC(CCCCCC)CCCCCC)CCN(C)CCNC [YK-225]	19.3	222	38.74	98.0	39.53	26145	1089.41	1145.82	805.46	0.02	43.41	–	–	–	–
CCCCCCCCCCOC(=O)CCCN(CCCCCC(=O)OCC(CCCCCCCC)CCCCCCCC)CCN(C)CCNC [YK-221]	21.9	237	31.46	95.4	32.98	27960	1018.69	1071.44	753.17	0.02	20.95	–	–	–	–
CCCCCCCCC(CCCCCCCC)OC(=O)CCCCCCCN(CCO)CCCCCCCC(=O)OCCC(CCCCCC)CCCCCC [Compound 21, 9-heptadecyl-8-(8-((3-hexylnonyl)oxy)-8-oxooctyl)-((2-hydroxyethyl)amino)octanoate, reference compound]	–	–	–	–	–	1421028	20.04	21.08	–	0.85	69.02	600390	108000	30025	6102
CCCCCCCCCCCOC(=O)CCCCCN(CCCCC(=O)OCC(CCCCCCCC)CCCCCCCC)CCNCC [YK-226]	–	–	–	–	–	57660	493.98	519.55	365.22	0.03	27.90	–	–	–	–

Continued, in another order:

PDI [1] [%]	Particle size [1] [nm]	Drug loading concentration [2] [µg/mL]	Encapsulation rate [2] [%]	Total RNA concentration [2] [µg/mL]	Compound	Relative light unit (RLU) (293T cells [3])	Multiples of values that equivalent to YK-201 (293T cells [3])	Multiples of values that equivalent to YK-202 (293T cells [3])	Multiples of values that equivalent to YK-209 (293T cells [3])	Ratio relative to SM-102 (293T cells [3])	Cell survival rate (293T cells [4]) [%]	average radiation intensity (mRNA expression) (female BALB/C mice; 6 h)	average radiation intensity (mRNA expression) (female BALB/C mice; 24 h)	average radiation intensity (mRNA expression) (female BALB/C mice; 48 h)	average radiation intensity (mRNA expression) (female BALB/C mice; 7 d)
17.7	219	30.02	68.4	43.92	CCCCCCCCCCCOC(=O)CCCCCN(CCCCCCCC(=O)OC(CCCCCCC)CCCCCCC)CCN(CC)CCO [YK-205]	1029168	27.68	29.11	20.46	0.62	58.92	–	–	–	–
23.7	235	38.38	91.0	42.19	CCCCCCCCCCCOC(=O)CCCCCN(CCCCCCCC(=O)OCCC(CCCCCC)CCCCCC)CCN(C)CCO [YK-203]	3869614	7.36	7.74	5.44	2.32	35.56	–	–	–	–
19.2	172	40.25	94.4	42.62	CCCCCCCCC(CCCCCCCC)COC(=O)CCCCCN(CCCCCC(=O)OCC(CCCCCCCC)CCCCCCCC)CCN(CCO)CCO [YK-212, bis(2-octyldecyl)-6,6-((2-(bis(2-hydroxyethyl)amino)ethyl)azadialkyl)dihexanoate]	3910590	7.28	7.66	5.39	2.35	35.26	–	–	–	–
